Experimental data reported in patent US20200316091A1, “METHOD FOR PROVIDING CONTRACEPTION” (LABORATOIRE HRA-PHARMA, priority 2019, published 2020).

Experiments:
[1] = test system: ovulation in women; settings: COC started two days after ulipristal acetate intake; cited from earlier work
[2] = test system: ovarian activity and ovulation in women; assay: Prospective, randomized, parallel-group clinical study of ovarian activity after ellaOne taken after three missed COC pills; assay type: in vivo; settings: for ovulation with risk of pregnancy: Arm 1, COC resumed same day as UPA 30 mg, any time of experimental cycle, N=26
Method: To determine the effect on ovarian activity and ovulation, of waiting five days before re-starting combined oral contraception (COC), or restarting immediately, having taken ulipristal acetate (UPA) for emergency contraception (EC) after missing three COC pills.
Women were enrolled for three cycles of COC use in a 21/7 regimen. In cycle 3 all women omitted COC pills for three consecutive days (days 5, 6, 7) and on day 8 took UPA-EC (30 mg). Half the women restarted their COC pills that same day while the remainder waiting for five days before restarting. Transvaginal ultrasound (TVUS) and blood sampling for estrogen and progesterone (E and P) was undertaken in all women on days 4, 8, 11, 13, 15, 18, 22 and 26. If a follicle of >13 mm diameter was seen, TVUS and blood sampling were performed daily until a post-ovulatory follicle was seen.
Women aged 18-30, weighing ≤30 kg/m^2 participated in the study during use of three consecutive packets of COCP. Women with contraindications to the COC or with conditions associated with anovulation (e.g. polycystic ovarian syndrome), and women who were breastfeeding or using any other hormonal contraception or an intrauterine device (IUD) were excluded. Screening was undertaken during cycle 1. Throughout the study women kept a daily diary of pill intake and vaginal bleeding. All women were instructed to take their pills at the same time every evening and to follow standard rules during the first two cycles of pill use for missed pills or for vomiting after taking a pill. The duration of COC intake in cycle 1 was adjusted (to no less than 14 and no more than 21 pills) to allow the first day of cycle 2 (baseline cycle—BSL) to fall on a weekday. After a seven-day hormone free interval (HFI) all women switched to the study COC containing 30 μg ethinyl estradiol/150 μg levonorgestrel with seven placebo tablets. Cycle three (Experimental cycle—EXP), started after a seven-day HFI at the end of BSL. After transvaginal ultrasound (TVUS) on day 1 of pill intake women were randomized so that an equal number of women with ovarian follicles of diameter ≤10 mm, or >10 mm and ≤13 mm or >13 mm were allocated to one of two study arms. After 4 days of COC, all women deliberately missed their COC pill on three consecutive days (5, 6, 7) and on the morning of day 8 all took a single 30 mg tablet of ellaOne® (ulipristal acetate 30 mg). Women in arm 1 of the study (immediate re-start) resumed daily COC intake that evening (D8) while those in arm 2 waited 5 days, re-starting their OC pill on the evening of D13 (delayed re-start). Once restarted, the COCP was continued until the packet was finished. A high sensitivity urinary pregnancy test was undertaken on day 1 of BSL and EXP and at the final study visit one or two days after the HFI following the end of the pill pack. Adverse event information was collected at every visit and blood sampling for haemoglobin and liver function was performed four times during the study.
An ovarian activity score developed from the Hoogland score (Hoogland and Skouby 1993, Contraception, 1993. 47(6): p. 583-90). The ovary was considered quiescent (OSq) if estradiol concentration was ≤0.1 nmol/L and progesterone ≤5 nmol/L even if a follicle of >13 mm was present. […] Ovulation was considered at risk of pregnancy (OSp) if there was a postovulatory image on TVUS and progesterone concentrations were >30 nmol/L on one occasion or between 10-30 nmol/L on two consecutive occasions.
The proportion of women who were at risk of pregnancy (OSp) at any time during the experimental cycle, including those who ovulated within the five days following ellaOne® intake, was estimated and the exact (Clopper-Pearson) two-sided 95% confidence interval was provided for each arm. The difference between the two arms was tested through an exact without stratum adjustment due to insufficient number of women in the self-weighted strata. […]

[3] = Arm 1 immediate COCP re-start (D8), experimental cycle D 1
[4] = Arm 1 immediate COCP re-start (D8), experimental cycle D 4
[5] = Arm 1 immediate COCP re-start (D8), experimental cycle D 8
[6] = Arm 1 immediate COCP re-start (D8), experimental cycle D 11
[7] = Arm 1 immediate COCP re-start (D8), experimental cycle D 13
[8] = Arm 1 immediate COCP re-start (D8), experimental cycle D 15
[9] = Arm 1 immediate COCP re-start (D8), experimental cycle D 18
[10] = Arm 1 immediate COCP re-start (D8), experimental cycle D 22
[11] = Arm 1 immediate COCP re-start (D8), experimental cycle D 26
[12] = Arm 2 delayed COCP re-start (D13), experimental cycle D 1
[13] = Arm 2 delayed COCP re-start (D13), experimental cycle D 4
[14] = Arm 2 delayed COCP re-start (D13), experimental cycle D 8
[15] = Arm 2 delayed COCP re-start (D13), experimental cycle D 11
[16] = Arm 2 delayed COCP re-start (D13), experimental cycle D 13
[17] = Arm 2 delayed COCP re-start (D13), experimental cycle D 15
[18] = Arm 2 delayed COCP re-start (D13), experimental cycle D 18
[19] = Arm 2 delayed COCP re-start (D13), experimental cycle D 22
[20] = Arm 2 delayed COCP re-start (D13), experimental cycle D 26

CC(=O)O[C@]1(C(C)=O)CC[C@H]2[C@@H]3CCC4=CC(=O)CCC4=C3[C@@H](c3ccc(N(C)C)cc3)C[C@@]21C [ellaOne, 17α-acetoxy-11β-[4-N,N-dimethylamino-phenyl]-19-norpregna-4,9-diene-3,20-dione]
effect of starting COC on efficacy of ulipristal acetate to inhibit or delay ovulation [1]: significantly impairs efficacy | ovulation with risk of pregnancy ([2]; listed as Ella): no ovulation at risk of pregnancy occurred | ovulation with risk of pregnancy ([2]; listed as Ellaone): no woman | number of women with ovarian activity without risk of pregnancy (OSa) ([2]; Arm 1, immediate COC re-start, experimental cycle): one | OSa (ovarian activity not at risk of pregnancy), women with status/women monitored [2, 3]: 0/26 | OSp (ovulation at risk of pregnancy), women with status/women monitored [2, 3]: 0/26 | OSq (ovary quiescent), women with status/women monitored [2, 3]: 26/26 | OSa (ovarian activity not at risk of pregnancy), women with status/women monitored [2, 4]: 1/26 | OSp (ovulation at risk of pregnancy), women with status/women monitored [2, 4]: 0/26 | OSq (ovary quiescent), women with status/women monitored [2, 4]: 25/26 | OSa (ovarian activity not at risk of pregnancy), women with status/women monitored [2, 5]: 2/26 | OSp (ovulation at risk of pregnancy), women with status/women monitored [2, 5]: 0/26 | OSq (ovary quiescent), women with status/women monitored [2, 5]: 24/26 | OSa (ovarian activity not at risk of pregnancy), women with status/women monitored [2, 6]: 1/26 | OSp (ovulation at risk of pregnancy), women with status/women monitored [2, 6]: 0/26 | OSq (ovary quiescent), women with status/women monitored [2, 6]: 25/26 | OSa (ovarian activity not at risk of pregnancy), women with status/women monitored [2, 7]: 1/26 | OSp (ovulation at risk of pregnancy), women with status/women monitored [2, 7]: 0/26 | OSq (ovary quiescent), women with status/women monitored [2, 7]: 25/26 | OSa (ovarian activity not at risk of pregnancy), women with status/women monitored [2, 8]: 1/26 | OSp (ovulation at risk of pregnancy), women with status/women monitored [2, 8]: 0/26 | OSq (ovary quiescent), women with status/women monitored [2, 8]: 25/26 | OSa (ovarian activity not at risk of pregnancy), women with status/women monitored [2, 9]: 1/26 | OSp (ovulation at risk of pregnancy), women with status/women monitored [2, 9]: 0/26 | OSq (ovary quiescent), women with status/women monitored [2, 9]: 25/26 | OSa (ovarian activity not at risk of pregnancy), women with status/women monitored [2, 10]: 1/26 | OSp (ovulation at risk of pregnancy), women with status/women monitored [2, 10]: 0/26 | OSq (ovary quiescent), women with status/women monitored [2, 10]: 25/26 | OSa (ovarian activity not at risk of pregnancy), women with status/women monitored [2, 11]: 1/26 | OSp (ovulation at risk of pregnancy), women with status/women monitored [2, 11]: 0/26 | OSq (ovary quiescent), women with status/women monitored [2, 11]: 24/25 | proportion of women who ovulated with risk of pregnancy ([2]; Arm 2, COC re-start delayed five days after UPA 30 mg, experimental cycle, CI 5.0-38.8, p=0.042 vs Arm 1): 17.4% | number of women who ovulated with risk of pregnancy ([2]; Arm 2, COC re-start delayed five days, more than 5 days after UPA-EC, before end of experimental cycle, N=23): Four | number of women with resumption of follicle growth ([2]; Arm 2, delayed COC re-start, remainder of experimental cycle): Eight | OSa (ovarian activity not at risk of pregnancy), women with status/women monitored [2, 12]: 1/23 | OSp (ovulation at risk of pregnancy), women with status/women monitored [2, 12]: 0/23 | OSq (ovary quiescent), women with status/women monitored [2, 12]: 22/23 | OSa (ovarian activity not at risk of pregnancy), women with status/women monitored [2, 13]: 3/23 | OSp (ovulation at risk of pregnancy), women with status/women monitored [2, 13]: 0/23 | OSq (ovary quiescent), women with status/women monitored [2, 13]: 20/23 | OSa (ovarian activity not at risk of pregnancy), women with status/women monitored [2, 14]: 4/23 | OSp (ovulation at risk of pregnancy), women with status/women monitored [2, 14]: 0/23 | OSq (ovary quiescent), women with status/women monitored [2, 14]: 19/23 | OSa (ovarian activity not at risk of pregnancy), women with status/women monitored [2, 15]: 6/23 | OSp (ovulation at risk of pregnancy), women with status/women monitored [2, 15]: 0/23 | OSq (ovary quiescent), women with status/women monitored [2, 15]: 17/23 | OSa (ovarian activity not at risk of pregnancy), women with status/women monitored [2, 16]: 5/22 | OSp (ovulation at risk of pregnancy), women with status/women monitored [2, 16]: 0/22 | OSq (ovary quiescent), women with status/women monitored [2, 16]: 17/22 | OSa (ovarian activity not at risk of pregnancy), women with status/women monitored [2, 17]: 7/23 | OSp (ovulation at risk of pregnancy), women with status/women monitored [2, 17]: 0/23 | OSq (ovary quiescent), women with status/women monitored [2, 17]: 16/23 | OSa (ovarian activity not at risk of pregnancy), women with status/women monitored [2, 18]: 8/23 | OSp (ovulation at risk of pregnancy), women with status/women monitored [2, 18]: 1/23 | OSq (ovary quiescent), women with status/women monitored [2, 18]: 14/23 | OSa (ovarian activity not at risk of pregnancy), women with status/women monitored [2, 19]: 2/23 | OSp (ovulation at risk of pregnancy), women with status/women monitored [2, 19]: 4/23 | OSq (ovary quiescent), women with status/women monitored [2, 19]: 17/23 | OSa (ovarian activity not at risk of pregnancy), women with status/women monitored [2, 20]: 4/23 | OSp (ovulation at risk of pregnancy), women with status/women monitored [2, 20]: 4/23 | OSq (ovary quiescent), women with status/women monitored [2, 20]: 15/23 | interference between the COC and EllaOne ([2]; COC resumed the same day as EllaOne 30 mg): no interference
